The values below are quoted from earlier work in patent publication US10172912B2, “Chemical induction of lactation in prepubescent non-human mammals” (priority 2009, dated 2019).

Structures are written as SMILES.

Series [1] relates to gravid horses. The note with it: for udder development: gravid equine mares with endophyte-infected ryegrass toxicity, thirty days before foaling.
Series [2] relates to plasma proteins.
The test system of series [3] is non-pregnant mares. The note with it: altrenogest/estradiol pessary week 1, estradiol pessary week 2 with twice daily drug.

For `O=c1[nH]c2ccccc2n1CCCN1CCC(n2c(=O)[nH]c3cc(Cl)ccc32)CC1` [Domperidone], the udder development result in series [1] is on record as “increases udder development”. Further, in series [1] (gravid horses with endophyte-infected ryegrass toxicity, administration for at least eighteen days), the lactation entry is listed as “increase lactation”. Also, in series [2], the “bound to plasma proteins” value is 91-93%.

Take `CCN1CCCC1CNC(=O)c1cc(S(N)(=O)=O)ccc1OC` (centres unmarked) [sulpiride]: the udder development entry in series [1] is “increases udder development”. Also, in series [3], the induced lactation volume is given as approximately 1 liter per mare/day.
